Laboratory results published in patent US20240067632A1, “WEE1 Degrading Compounds and Uses Thereof” (Bristol-Myers Squibb Company, priority 2022, published 2024).

Columns and labels:
MKN45 cells = experiment: MKN45 cell proliferation assay (Cell-Titer-Glo, 120 h); assay type: cell-based; settings: for EC50: Homo sapiens, MKN-45, 120 h, Cell-Titer-Glo, growth inhibition, read-out: MKN45 Cell Prolif. 120 hr (EC50); for MKN45 Cell Prolif. 120 hr (Ymin-Obs): minimal percent of DMSO control observed in the concentrations tested
Summary of the method: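 Growth inhibition was read as blank-corrected Cell-Titer-Glo luminescence expressed as percent DMSO control after 120 h at 37 C, 400 cells/well. Compounds tested in triplicate as 10-point half-log series from 1 or 10 uM, 0.1% DMSO; four-parameter fit gave EC50, and lowest observed percent control was reported as Ymin-obs.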

WEE1 = target: T1, WEE1 (Homo sapiens, UniProt P30291+Q96SW2); experiment: WEE1-ePL degradation assay (LentiX-WEE1-ePL-GSPT1-ND cells, InCELL Hunter luminescence, 4 h); assay type: cell-based; settings: 293T-LentiX WEE1-ePL cells; for 293T-LentiX WEE1-ePL Degradation 4 hr (Ymin): lower limit of the fit (0 = luciferase inhibitor, Ymax = DMSO control); for DC50: read-out: 293T-LentiX WEE1-ePL Degradation 4 hr (EC50)
T1 construct: C-terminal ePL-tagged (DiscoverX, Fremont, CA) full-length WEE1 expression construct; expressed in transfected cells; host or cells: LentiX-HEK293T (Invitrogen), lentiviral transduction; co-expressing GSPT1-GN (G576N, lacking the first 158 amino acids)
Summary of the method: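 Degradation EC50 was fitted by a four-parameter logistic model, with the upper limit taken from DMSO wells. Luminescence was read with InCELL Hunter reagent after 30 min at room temperature, following a 4 h, 37° C exposure of 2500 cells/well. Cells were LentiX-HEK293T carrying ePL-tagged full-length WEE1, dosed in 10 points (3-fold) from 1 or 10 uM.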

Structure (SMILES)	EC50 (MKN45 cells)	MKN45 Cell Prolif. 120 hr (Ymin-Obs) (MKN45 cells)	293T-LentiX WEE1-ePL Degradation 4 hr (Ymin) (WEE1)	DC50 (WEE1)
O=C1CCC(N2Cc3cc(O[C@H]4CCN(Cc5cc6c(cn5)OCC6)C4)ccc3C2=O)C(=O)N1 (stereo partly drawn) [3-(5-{[(3S)-1-({2H,3H-furo[2,3-c]pyridin-5-yl}methyl)pyrrolidin-3-yl]oxy}-1-oxo-2,3-dihydro-1H-isoindol-2-yl)piperidine-2,6-dione]	751 nM	25.455	34	20.8 nM
O=C1CCC(N2Cc3cc(O[C@H]4CCN(Cc5cc(-c6cccc(C7=CCOCC7)c6)ccn5)C4)ccc3C2=O)C(=O)N1 (stereo partly drawn) [3-(5-{[(3S)-1-({4-[3-(3,6-dihydro-2H-pyran-4-yl)phenyl]pyridin-2-yl}methyl)pyrrolidin-3-yl]oxy}-1-oxo-2,3-dihydro-1H-isoindol-2-yl)piperidine-2,6-dione]	0.738 nM	7.53	28	2 nM
O=C1CCC(N2Cc3cc(O[C@H]4CCN(Cc5cc(-c6cccc(N7CCOCC7)c6)ccn5)C4)ccc3C2=O)C(=O)N1 (stereo partly drawn) [3-(5-{[(3S)-1-({4-[3-(morpholin-4-yl)phenyl]pyridin-2-yl}methyl)pyrrolidin-3-yl]oxy}-1-oxo-2,3-dihydro-1H-isoindol-2-yl)piperidine-2,6-dione]	7.33 nM	4.54	28	2.32 nM
O=C1CCC(N2Cc3cc(O[C@H]4CCN(Cc5cc(-c6ccc(C7CCOCC7)cc6)ccn5)C4)ccc3C2=O)C(=O)N1 (stereo partly drawn) [3-(5-{[(3S)-1-({4-[4-(oxan-4-yl)phenyl]pyridin-2-yl}methyl)pyrrolidin-3-yl]oxy}-1-oxo-2,3-dihydro-1H-isoindol-2-yl)piperidine-2,6-dione]	0.192 nM	6.39	31	1.33 nM
Cc1cc(CN2CC[C@H](Oc3ccc4c(c3)CN(C3CCC(=O)NC3=O)C4=O)C2)ncc1OCC1CCOCC1 (stereo partly drawn) [3-(5-{[(3S)-1-({4-methyl-5-[(oxan-4-yl)methoxy]pyridin-2-yl}methyl)pyrrolidin-3-yl]oxy}-1-oxo-2,3-dihydro-1H-isoindol-2-yl)piperidine-2,6-dione]	44.9 nM	16.9	42	9.71 nM
CNC1(c2ccc3cc(CN4CC[C@H](Oc5ccc6c(c5)CN(C5CCC(=O)NC5=O)C6=O)C4)ncc3c2)COC1 (stereo partly drawn) [3-(5-{[(3S)-1-({7-[3-(methylamino)oxetan-3-yl]isoquinolin-3-yl}methyl)pyrrolidin-3-yl]oxy}-1-oxo-2,3-dihydro-1H-isoindol-2-yl)piperidine-2,6-dione]	56.4 nM	7.77	33	96.7 nM
O=C1CCC(N2Cc3cc(O[C@H]4CCN(Cc5cnc6ccccn56)C4)ccc3C2=O)C(=O)N1 (stereo partly drawn) [3-(5-{[(3S)-1-({imidazo[1,2-a]pyridin-3-yl}methyl)pyrrolidin-3-yl]oxy}-1-oxo-2,3-dihydro-1H-isoindol-2-yl)piperidine-2,6-dione]	933 nM	21.75	33.52	150 nM
O=C1CCC(N2Cc3cc(O[C@H]4CCN(Cc5ccc6ncccc6n5)C4)ccc3C2=O)C(=O)N1 (stereo partly drawn) [3-(5-{[(3S)-1-[(1,5-naphthyridin-2-yl)methyl]pyrrolidin-3-yl]oxy}-1-oxo-2,3-dihydro-1H-isoindol-2-yl)piperidine-2,6-dione]	2520 nM	54.03	37	27.9 nM
O=C1CCC(N2Cc3cc(O[C@H]4CCN(Cc5cnc6cccnc6c5)C4)ccc3C2=O)C(=O)N1 (stereo partly drawn) [3-(5-{[(3S)-1-[(1,5-naphthyridin-3-yl)methyl]pyrrolidin-3-yl]oxy}-1-oxo-2,3-dihydro-1H-isoindol-2-yl)piperidine-2,6-dione]	561 nM	73.34	66	75.4 nM
O=C1CCC(N2Cc3cc(O[C@H]4CCN(Cc5cc6ncccc6cn5)C4)ccc3C2=O)C(=O)N1 (stereo partly drawn) [3-(5-{[(3S)-1-[(1,6-naphthyridin-7-yl)methyl]pyrrolidin-3-yl]oxy}-1-oxo-2,3-dihydro-1H-isoindol-2-yl)piperidine-2,6-dione]	960 nM	84.48	67.53	122 nM
O=C1CCC(N2Cc3cc(O[C@H]4CCN(Cc5cnc6cnccc6c5)C4)ccc3C2=O)C(=O)N1 (stereo partly drawn) [3-(5-{[(3S)-1-[(1,7-naphthyridin-3-yl)methyl]pyrrolidin-3-yl]oxy}-1-oxo-2,3-dihydro-1H-isoindol-2-yl)piperidine-2,6-dione]	92.3 nM	9.14	26.94	20.8 nM
O=C1CCC(N2Cc3cc(O[C@H]4CCN(Cc5cc6cccnc6cn5)C4)ccc3C2=O)C(=O)N1 (stereo partly drawn) [3-(5-{[(3S)-1-[(1,7-naphthyridin-6-yl)methyl]pyrrolidin-3-yl]oxy}-1-oxo-2,3-dihydro-1H-isoindol-2-yl)piperidine-2,6-dione]	102 nM	9.59	26.505	14.7 nM
O=C1CCC(N2Cc3cc(O[C@H]4CCN(Cc5ccc6cccnc6n5)C4)ccc3C2=O)C(=O)N1 (stereo partly drawn) [3-(5-{[(3S)-1-[(1,8-naphthyridin-2-yl)methyl]pyrrolidin-3-yl]oxy}-1-oxo-2,3-dihydro-1H-isoindol-2-yl)piperidine-2,6-dione]	1020 nM	65.94	75	292 nM
O=C1CCC(N2Cc3cc(O[C@H]4CCN(Cc5cnc6ncccc6c5)C4)ccc3C2=O)C(=O)N1 (stereo partly drawn) [3-(5-{[(3S)-1-[(1,8-naphthyridin-3-yl)methyl]pyrrolidin-3-yl]oxy}-1-oxo-2,3-dihydro-1H-isoindol-2-yl)piperidine-2,6-dione]	547 nM	12.27	27.365	70.6 nM
CN1CCCc2c(CN3CC[C@H](Oc4ccc5c(c4)CN(C4CCC(=O)NC4=O)C5=O)C3)cncc21 (stereo partly drawn) [3-(5-{[(3S)-1-[(1-methyl-1,2,3,4-tetrahydro-1,7-naphthyridin-5-yl)methyl]pyrrolidin-3-yl]oxy}-1-oxo-2,3-dihydro-1H-isoindol-2-yl)piperidine-2,6-dione]	313 nM	43.26	40	19.6 nM
Cn1ncc2cc(CN3CC[C@H](Oc4ccc5c(c4)CN(C4CCC(=O)NC4=O)C5=O)C3)ccc21 (stereo partly drawn) [3-(5-{[(3S)-1-[(1-methyl-1H-indazol-5-yl)methyl]pyrrolidin-3-yl]oxy}-1-oxo-2,3-dihydro-1H-isoindol-2-yl)piperidine-2,6-dione]	> 10000 nM	86.69	61	68.8 nM
Cc1nc(CN2CC[C@H](Oc3ccc4c(c3)CN(C3CCC(=O)NC3=O)C4=O)C2)cc2ccccc12 (stereo partly drawn) [3-(5-{[(3S)-1-[(1-methylisoquinolin-3-yl)methyl]pyrrolidin-3-yl]oxy}-1-oxo-2,3-dihydro-1H-isoindol-2-yl)piperidine-2,6-dione]	5040 nM	50.77	47.56	31 nM
O=C1CCC(N2Cc3cc(O[C@H]4CCN(Cc5cc6cnccc6cn5)C4)ccc3C2=O)C(=O)N1 (stereo partly drawn) [3-(5-{[(3S)-1-[(2,6-naphthyridin-3-yl)methyl]pyrrolidin-3-yl]oxy}-1-oxo-2,3-dihydro-1H-isoindol-2-yl)piperidine-2,6-dione]	544 nM	24.28	34.11	39.9 nM
O=C1CCC(N2Cc3cc(O[C@H]4CCN(Cc5cc6ccncc6cn5)C4)ccc3C2=O)C(=O)N1 (stereo partly drawn) [3-(5-{[(3S)-1-[(2,7-naphthyridin-3-yl)methyl]pyrrolidin-3-yl]oxy}-1-oxo-2,3-dihydro-1H-isoindol-2-yl)piperidine-2,6-dione]	98.8 nM	6.92	28.095	19.3 nM
Cc1ccc2cc(CN3CC[C@H](Oc4ccc5c(c4)CN(C4CCC(=O)NC4=O)C5=O)C3)cc(C)c2n1 (stereo partly drawn) [3-(5-{[(3S)-1-[(2,8-dimethylquinolin-6-yl)methyl]pyrrolidin-3-yl]oxy}-1-oxo-2,3-dihydro-1H-isoindol-2-yl)piperidine-2,6-dione]	55.5 nM	13.61	29.33	6.44 nM
O=C1CCC(N2Cc3cc(O[C@H]4CCN(Cc5ccc6nc(Cl)ccc6c5)C4)ccc3C2=O)C(=O)N1 (stereo partly drawn) [3-(5-{[(3S)-1-[(2-chloroquinolin-6-yl)methyl]pyrrolidin-3-yl]oxy}-1-oxo-2,3-dihydro-1H-isoindol-2-yl)piperidine-2,6-dione]	9.58 nM	12.57	29.2	2.82 nM
